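Values below derive from 48-hour exposures of cells grown in 96-well plates, with endpoints linearly interpolated between the two concentrations bracketing the appropriate inhibition level. Here, GI50 denotes the concentration required for 50% inhibition of growth. Definition used: TGI = concentration required for complete inhibition of growth.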
How the values were obtained:
Test in all cases: NCI tumour cell line growth inhibition, 48 h
HCT-116 colon = tested on: HCT-116 colon
HCT-15 colon = tested on: HCT-15 colon
HL-60(TB) leukemia = tested on: HL-60(TB) leukemia
HOP-62 NSCLC = tested on: HOP-62 NSCLC
MOLT-4 leukemia = tested on: MOLT-4 leukemia
NCI-H23 lung = tested on: NCI-H23 lung
SK-MEL-28 melanoma = tested on: SK-MEL-28 melanoma
SNB-75 CNS = tested on: SNB-75 CNS
RXF 393 renal = tested on: RXF 393 renal

SMILES	TGI (HCT-116 colon)	TGI (HCT-15 colon)	TGI (HL-60(TB) leukemia)	TGI (HOP-62 NSCLC)	TGI (MOLT-4 leukemia)	TGI (NCI-H23 lung)	TGI (SK-MEL-28 melanoma)	TGI (SNB-75 CNS)	TGI (RXF 393 renal)	GI50 (HCT-116 colon)	GI50 (HCT-15 colon)	GI50 (HL-60(TB) leukemia)	GI50 (HOP-62 NSCLC)	GI50 (MOLT-4 leukemia)	GI50 (NCI-H23 lung)	GI50 (RXF 393 renal)	GI50 (SK-MEL-28 melanoma)	GI50 (SNB-75 CNS)
NS(=O)(=O)c1ccc(NC(=O)c2cccc3c(=O)c4ccccc4[nH]c23)cc1	> 100 µM	> 100 µM	> 100 µM	> 100 µM	> 100 µM	> 100 µM	> 100 µM	55.2 µM	–	–	–	–	–	–	–	–	–	–
C=C(COC(C)=O)CC(/C=C(\C)CCC=C(C)C)OC(C)=O (configuration not stated)	> 100 µM	> 100 µM	> 100 µM	> 100 µM	> 100 µM	> 100 µM	> 100 µM	> 100 µM	> 100 µM	–	–	–	–	–	–	–	–	–
CC(=O)OCCOCBr	> 100 µM	> 100 µM	> 100 µM	> 100 µM	–	–	> 100 µM	> 100 µM	> 100 µM	–	–	–	–	–	–	–	–	–
COc1ccc(C2C(N)=NCC2c2ccccn2)cc1 (configuration not stated)	> 100 µM	–	–	> 100 µM	> 100 µM	> 100 µM	> 100 µM	> 100 µM	> 100 µM	–	–	–	–	–	–	–	–	–
c1ccc2c(c1)N=C(c1cccc3ccccc13)CC(c1cccc3ccccc13)S2 (configuration not stated)	12.9 µM	22.5 µM	3.56 µM	26.1 µM	5.15 µM	12.5 µM	25.9 µM	19.1 µM	16.5 µM	–	–	–	–	–	–	–	–	–
CC/C=C\C/C=C\C1CC(=O)NCCCNCCCCN1 (configuration not stated)	> 100 µM	–	> 100 µM	> 100 µM	–	> 100 µM	> 100 µM	> 100 µM	70.4 µM	–	–	–	–	–	–	–	–	–
O=C1N[C@@H](O)[C@@H]2ON=C(c3ccccc3)[C@H]12	> 100 µM	> 100 µM	> 100 µM	> 100 µM	> 100 µM	> 100 µM	> 100 µM	> 100 µM	> 100 µM	–	–	–	–	–	–	–	–	–
Cc1sc(C)c(-c2ccc(CO)o2)c1-c1ccc(CO)o1	> 100 µM	> 100 µM	> 100 µM	> 100 µM	> 100 µM	> 100 µM	> 100 µM	> 100 µM	> 100 µM	0.0695 µM	> 76.6 µM	52.5 µM	0.372 µM	48.9 µM	> 100 µM	0.316 µM	> 100 µM	25.4 µM
C=C1C(=O)O[C@H]2[C@H]1CC/C(COC(=O)c1cc3cc(OC)ccc3[nH]1)=C\CC[C@@]1(C)O[C@@H]21	1.72 µM	1.6 µM	2.08 µM	3.29 µM	5.21 µM	2.97 µM	2.61 µM	–	2.39 µM	0.425 µM	0.323 µM	0.326 µM	1.64 µM	1.32 µM	1.49 µM	1.14 µM	1.23 µM	–
COc1cc(/C=C/C(=N\NC(=O)c2ccccc2)c2sc(Nc3ccc(Cl)c(Cl)c3)nc2C)ccc1O	> 100 µM	> 100 µM	40 µM	> 100 µM	66.6 µM	77.3 µM	> 100 µM	> 100 µM	> 100 µM	–	–	–	–	–	–	–	–	–
O=c1c2ccccc2c2c3c1cccc3c1cccc3c(=O)c4ccccc4c2c31	> 100 µM	> 100 µM	–	> 100 µM	> 100 µM	> 100 µM	> 100 µM	> 100 µM	> 100 µM	–	–	–	–	–	–	–	–	–
Clc1ccc(CNc2nc3ccccc3nc2-c2cccs2)c(Cl)c1	> 100 µM	> 100 µM	> 100 µM	> 100 µM	> 100 µM	> 100 µM	> 100 µM	–	> 100 µM	–	–	–	–	–	–	–	–	–
CC(=O)c1c(C)n([O-])c2cc(C)c(C)cc2[n+]1=O	–	> 100 µM	> 100 µM	> 100 µM	> 100 µM	> 100 µM	> 100 µM	> 100 µM	–	–	–	–	–	–	–	–	–	–
O=C1c2ccccc2-c2cccc3ccc(Cc4ccccc4)c1c23	> 100 µM	> 100 µM	> 100 µM	> 100 µM	> 100 µM	> 100 µM	> 100 µM	> 100 µM	> 100 µM	–	–	–	–	–	–	–	–	–
NC1=NC(=O)C(CC(=O)Nc2ccc([N+](=O)[O-])cc2[N+](=O)[O-])S1 (configuration not stated)	> 100 µM	–	> 100 µM	> 100 µM	> 100 µM	> 100 µM	> 100 µM	> 100 µM	> 100 µM	–	–	–	–	–	–	–	–	–
CN(C)C(=S)/N=c1\ss/c(=N\S(=O)(=O)c2ccccc2)n1-c1ccccc1	–	> 100 µM	> 100 µM	98.3 µM	> 100 µM	> 100 µM	> 100 µM	> 100 µM	> 100 µM	–	–	–	–	–	–	–	–	–

SMILES	TGI (HCT-116 colon)	TGI (HCT-15 colon)	TGI (HL-60(TB) leukemia)	TGI (HOP-62 NSCLC)	TGI (MOLT-4 leukemia)	TGI (NCI-H23 lung)	TGI (SK-MEL-28 melanoma)	TGI (SNB-75 CNS)	TGI (RXF 393 renal)	GI50 (HCT-116 colon)	GI50 (HCT-15 colon)	GI50 (HL-60(TB) leukemia)	GI50 (HOP-62 NSCLC)	GI50 (MOLT-4 leukemia)	GI50 (NCI-H23 lung)	GI50 (RXF 393 renal)	GI50 (SK-MEL-28 melanoma)	GI50 (SNB-75 CNS)
c1cc[c]([Sn]([S]c2cccc3cccnc23)([c]2ccccc2)[c]2ccccc2)cc1	0.039 µM	0.0467 µM	–	0.368 µM	–	0.175 µM	0.15 µM	0.0473 µM	–	0.0161 µM	0.0196 µM	–	0.103 µM	–	0.0305 µM	–	0.0364 µM	–
COc1ccc(/C=C/C(=O)c2sc(-n3nc(-c4ccccc4)cc3-c3ccccc3)nc2C)cc1OC	> 100 µM	> 100 µM	62.2 µM	> 100 µM	64.8 µM	> 100 µM	> 100 µM	–	> 100 µM	–	–	–	–	–	–	–	–	–
COc1ccc(C(=O)C(C(=O)CCC(=O)Nc2cccc(C(F)(F)F)c2)c2ccccc2)cc1 (configuration not stated)	> 100 µM	> 100 µM	> 100 µM	> 100 µM	> 100 µM	> 100 µM	> 100 µM	> 100 µM	–	–	–	–	–	–	–	–	–	–
CC1CCCC(C(=O)/C(=C/c2cccc(Cl)c2)C(=O)C(=O)O)C1 (configuration not stated)	26.9 µM	28.2 µM	47.9 µM	> 100 µM	49.8 µM	> 100 µM	> 100 µM	> 100 µM	–	–	–	–	–	–	–	–	–	–
Clc1cc(Cl)c2c(Cl)cc(Cl)c3c2c1N=S=N3	> 100 µM	> 100 µM	> 100 µM	–	> 100 µM	> 100 µM	> 100 µM	> 100 µM	> 100 µM	–	–	–	–	–	–	–	–	–
COc1ccc(C2=NC(C)(C)CO2)cc1	> 100 µM	> 100 µM	> 100 µM	> 100 µM	–	> 100 µM	> 100 µM	> 100 µM	> 100 µM	–	–	–	–	–	–	–	–	–
COc1ccc2c(c1)C=CC(C#N)N2C(=O)c1ccccc1 (configuration not stated)	> 100 µM	> 100 µM	–	> 100 µM	> 100 µM	> 100 µM	> 100 µM	> 100 µM	–	< 0.01 µM	< 0.01 µM	< 0.01 µM	< 0.01 µM	< 0.01 µM	< 0.01 µM	–	–	< 0.01 µM
CCCS(=O)(=O)c1nc(NC2CC2)cc(-c2ccc3c(ccn3C3CC(C)(C)NC(C)(C)C3)c2)n1	3.22 µM	3.12 µM	3.73 µM	3.4 µM	4.57 µM	–	–	2.86 µM	3.44 µM	1.68 µM	1.57 µM	1.75 µM	1.73 µM	2.02 µM	–	1.64 µM	–	1.45 µM
Oc1c2c(c(O)c3ccccc13)=N[C@@H](c1ccccc1)[C@H](c1ccccc1)N=2	> 100 µM	> 100 µM	> 100 µM	> 100 µM	> 100 µM	> 100 µM	> 100 µM	> 100 µM	> 100 µM	–	–	–	–	–	–	–	–	–
CN(C)c1nc(-c2cccs2)n2nc(-c3ccc(Cl)cc3)cc2n1	> 100 µM	> 100 µM	> 100 µM	6.53 µM	> 100 µM	> 100 µM	> 100 µM	10.4 µM	> 100 µM	2.43 µM	> 100 µM	> 100 µM	2.27 µM	> 100 µM	6.51 µM	3.39 µM	> 100 µM	2.26 µM
CC(C)(C)C1(O)Cc2ccccc2C(=O)O1 (configuration not stated)	> 100 µM	> 100 µM	> 100 µM	> 100 µM	> 100 µM	> 100 µM	> 100 µM	> 100 µM	> 100 µM	–	–	–	–	–	–	–	–	–
O=C(Nc1ccc(S(=O)(=O)N[C@@H](C(=O)O)c2ccccc2)cc1)c1ccc(F)cc1	–	> 100 µM	–	–	> 100 µM	> 100 µM	> 100 µM	> 100 µM	> 100 µM	–	–	–	–	–	–	–	–	–
COc1cc(/C=C\c2ccc(O)cc2)cc(OC)c1OC	> 59.8 µM	> 100 µM	> 29.3 µM	> 100 µM	> 100 µM	–	9.61 µM	> 30 µM	> 25.1 µM	–	–	–	–	–	–	–	–	–
CCOC(=O)[C@@H](C)C[C@H](Cc1ccccc1)NC(=O)c1csc([C@@H](C[C@H](C(C)C)N(C)C(=O)[C@@H](NC(=O)[C@H]2CCCCN2C)C(C)(C)C)OC(C)=O)n1	–	> 16.7 µM	< 0.00167 µM	> 16.7 µM	> 16.7 µM	> 16.7 µM	–	12.6 µM	> 16.7 µM	< 0.00167 µM	< 0.00167 µM	< 0.00167 µM	< 0.00167 µM	0.00217 µM	< 0.00167 µM	< 0.00167 µM	–	< 0.00167 µM
CCOc1cccc2nc3cccc(C(=O)NCCN(C)C)c3nc12	2.37 µM	7.47 µM	–	2.18 µM	0.746 µM	4.45 µM	3.77 µM	11.6 µM	3.21 µM	–	–	–	–	–	–	–	–	–
CC1(C)CCc2cc3c(cc2O1)OCCC3=O	> 100 µM	> 100 µM	> 100 µM	> 100 µM	> 100 µM	> 100 µM	–	> 100 µM	> 100 µM	–	–	–	–	–	–	–	–	–
